Consider six molecules from patent publication US11053213B2, “Pharmaceutical compounds” (ALMAC DISCOVERY LIMITED, priority 2016, dated 2021).

pIC50: −log10 of the molar value.

The first experiment deals with panel of DUBs (24 USPs and 19 other DUBs). Description: Selectivity profile against a panel of DUBs (Ub-Rh110 substrate, Ubiquigent). In kind it is biochemical. As to conditions: fixed concentration of 100 μM. As for the experimental part:
FIG. 1 Overall selectivity profile of Example 124 against a panel of DUBs. Included in this screen were 24 USPs and 19 other DUBs (as indicated). Example 124 was screened at a fixed concentration of 100 μM using the Ub-Rh110 substrate (Ubiquigent). Residual activity is shown on the y-axis normalised to the no compound (DMSO) control.
`C[C@H](CC1CCCCC1)C(=O)N1CC[C@@](O)(Cn2cc(C(=O)N3CCNCC3)c(-c3ccccc3)cc2=O)C(C)(C)C1` [Example 124, 1-(((S)-1-((R)-3-Cyclohexyl-2-methylpropanoyl)-4-hydroxy-3,3-dimethylpiperidin-4-yl)methyl)-4-phenyl-5-(piperazine-1-carbonyl)pyridin-2(1H)-one]: the “Overall selectivity profile (residual activity normalised to DMSO control)” value is given as “selectivity is demonstrated”.

The target in a further experiment is USP19 (Homo sapiens (Human), UniProt O94966). Description: USP19 activity assay (fluorescence polarisation, Ubiquitin-Lys-TAMRA substrate). In kind it is biochemical. Particulars: full-length USP19 2.5 nM, 30 min pre-incubation, Ub substrate 500 nM; average of at least two duplicate experiments.
USP19, sequence (O94966 whole entry): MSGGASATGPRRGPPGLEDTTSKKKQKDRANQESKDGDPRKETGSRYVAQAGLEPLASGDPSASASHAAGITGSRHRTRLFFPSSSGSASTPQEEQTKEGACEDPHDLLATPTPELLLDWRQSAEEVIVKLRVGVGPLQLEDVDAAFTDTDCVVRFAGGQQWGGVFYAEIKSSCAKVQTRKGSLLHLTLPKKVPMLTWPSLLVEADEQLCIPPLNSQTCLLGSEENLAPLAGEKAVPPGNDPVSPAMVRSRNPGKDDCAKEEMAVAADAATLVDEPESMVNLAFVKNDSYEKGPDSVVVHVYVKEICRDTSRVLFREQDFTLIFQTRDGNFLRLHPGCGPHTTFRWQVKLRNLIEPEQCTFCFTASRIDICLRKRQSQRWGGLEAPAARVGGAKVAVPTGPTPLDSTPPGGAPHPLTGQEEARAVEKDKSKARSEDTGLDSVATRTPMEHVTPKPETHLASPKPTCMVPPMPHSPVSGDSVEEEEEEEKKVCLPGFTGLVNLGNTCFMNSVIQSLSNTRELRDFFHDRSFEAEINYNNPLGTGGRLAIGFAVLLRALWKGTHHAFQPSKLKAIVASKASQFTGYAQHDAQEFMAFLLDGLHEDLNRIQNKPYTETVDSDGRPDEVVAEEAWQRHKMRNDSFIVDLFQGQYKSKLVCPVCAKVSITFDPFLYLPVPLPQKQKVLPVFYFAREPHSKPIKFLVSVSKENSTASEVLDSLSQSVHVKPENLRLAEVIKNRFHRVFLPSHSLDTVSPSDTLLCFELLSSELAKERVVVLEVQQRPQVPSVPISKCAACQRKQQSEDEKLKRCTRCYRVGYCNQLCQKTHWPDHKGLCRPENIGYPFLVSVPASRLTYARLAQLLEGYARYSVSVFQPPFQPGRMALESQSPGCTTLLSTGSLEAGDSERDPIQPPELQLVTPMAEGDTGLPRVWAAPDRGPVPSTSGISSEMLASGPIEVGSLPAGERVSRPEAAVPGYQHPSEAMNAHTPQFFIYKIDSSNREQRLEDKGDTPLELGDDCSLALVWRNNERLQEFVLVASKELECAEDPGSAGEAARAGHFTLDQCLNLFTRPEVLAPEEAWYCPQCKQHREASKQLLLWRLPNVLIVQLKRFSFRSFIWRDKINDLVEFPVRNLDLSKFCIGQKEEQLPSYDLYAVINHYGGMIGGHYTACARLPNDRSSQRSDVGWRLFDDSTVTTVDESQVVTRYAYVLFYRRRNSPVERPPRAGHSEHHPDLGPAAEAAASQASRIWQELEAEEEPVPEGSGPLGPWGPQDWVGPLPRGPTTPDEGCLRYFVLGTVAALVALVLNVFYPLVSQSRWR
Turning to `C[C@H](CC1CCCCC1)C(=O)N1CC[C@@](O)(Cn2cc(C(=O)N3CCNCC3)c(-c3ccccc3)cc2=O)C(C)(C)C1` [Example 124, 1-(((S)-1-((R)-3-Cyclohexyl-2-methylpropanoyl)-4-hydroxy-3,3-dimethylpiperidin-4-yl)methyl)-4-phenyl-5-(piperazine-1-carbonyl)pyridin-2(1H)-one], the negative logarithm of the IC50 (pIC50) is > 6.30.
For the molecule `C[C@H](CC1CCCCC1)C(=O)N1CC[C@](O)(Cn2cc(C(=O)N3CCNCC3)c(-c3ccccc3)cc2=O)C(C)(C)C1` [Example 125, 1-(((R)-1-((R)-3-Cyclohexyl-2-methylpropanoyl)-4-hydroxy-3,3-dimethylpiperidin-4-yl)methyl)-4-phenyl-5-(piperazine-1-carbonyl)pyridin-2(1H)-one], the pIC50 is 4.30 to 5.30.
Regarding `Cc1cccc(-c2cc(=O)n(CC3(O)CCN(C(=O)C[C@@H](C)c4ccccc4)CC3)cc2C(=O)N(C)C(C)C)c1` [Example 102, (R)-1-((4-Hydroxy-1-(3-phenylbutanoyl)piperidin-4-yl)methyl)-N-isopropyl-N-methyl-6-oxo-4-(m-tolyl)-1,6-dihydropyridine-3-carboxamide], the pIC50 is 5.30 to 6.30.
As for `C[C@H](CC1CCCCC1)C(=O)N1CCC(O)(Cn2cc(C(=O)N(C)C)ccc2=O)C2(CCCC2)C1` (stereo partly drawn) [Example 127, 1-((7-((R)-3-Cyclohexyl-2-methylpropanoyl)-10-hydroxy-7-azaspiro[4.5]decan-10-yl)methyl)-N,N-dimethyl-6-oxo-1,6-dihydropyridine-3-carboxamide], the pIC50 is 5.30 to 6.30.
Take `O=C(C(O)CC1CCCCC1)N1CCC(O)(Cn2cnc(-c3ccccc3F)cc2=O)CC1` (racemic) [Example 44, (R,S)-3-((1-(3-Cyclohexyl-2-hydroxypropanoyl)-4-hydroxypiperidin-4-yl)methyl)-6-(2-fluorophenyl)pyrimidin-4(3H)-one]: the pIC50 is 4.30 to 5.30.
Take `CC1(C)CN(C(=O)CCC2CCCCC2)CCC1(O)Cn1cnc(-c2ccccc2F)cc1=O` (racemic) [Example 78, (R,S)-3-((1-(3-Cyclohexylpropanoyl)-4-hydroxy-3,3-dimethylpiperidin-4-yl)methyl)-6-(2-fluorophenyl)pyrimidin-4(3H)-one]: the pIC50 is 5.30 to 6.30.
